The numbers were not newly measured in patent US20130053541A1, “METHODS FOR DISCOVERING MOLECULES THAT BIND TO PROTEINS” (LYNNTECH, INC., priority 2011, published 2013), which cites them from elsewhere.

The target of data set [1] is T1, (Homo sapiens, UniProt P11474).
T1 sequence (P11474 1-423): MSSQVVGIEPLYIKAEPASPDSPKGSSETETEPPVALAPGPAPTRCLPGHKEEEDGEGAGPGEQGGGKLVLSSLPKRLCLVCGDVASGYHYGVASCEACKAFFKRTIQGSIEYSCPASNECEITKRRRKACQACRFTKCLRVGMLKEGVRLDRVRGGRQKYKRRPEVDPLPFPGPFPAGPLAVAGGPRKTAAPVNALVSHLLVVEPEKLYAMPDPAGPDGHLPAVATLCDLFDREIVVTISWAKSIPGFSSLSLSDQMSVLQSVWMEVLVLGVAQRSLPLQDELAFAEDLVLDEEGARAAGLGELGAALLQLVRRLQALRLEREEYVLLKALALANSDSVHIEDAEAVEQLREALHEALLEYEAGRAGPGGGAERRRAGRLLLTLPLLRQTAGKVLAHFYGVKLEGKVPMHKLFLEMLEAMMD
To be noted: phage display peptides; cited from earlier work.

For a further data set, the system named is mAb-E2. To be noted: cited from earlier work.
The target in the next data set is T2, ERα (Homo sapiens, UniProt P03372).
T2 sequence (P03372 1-595): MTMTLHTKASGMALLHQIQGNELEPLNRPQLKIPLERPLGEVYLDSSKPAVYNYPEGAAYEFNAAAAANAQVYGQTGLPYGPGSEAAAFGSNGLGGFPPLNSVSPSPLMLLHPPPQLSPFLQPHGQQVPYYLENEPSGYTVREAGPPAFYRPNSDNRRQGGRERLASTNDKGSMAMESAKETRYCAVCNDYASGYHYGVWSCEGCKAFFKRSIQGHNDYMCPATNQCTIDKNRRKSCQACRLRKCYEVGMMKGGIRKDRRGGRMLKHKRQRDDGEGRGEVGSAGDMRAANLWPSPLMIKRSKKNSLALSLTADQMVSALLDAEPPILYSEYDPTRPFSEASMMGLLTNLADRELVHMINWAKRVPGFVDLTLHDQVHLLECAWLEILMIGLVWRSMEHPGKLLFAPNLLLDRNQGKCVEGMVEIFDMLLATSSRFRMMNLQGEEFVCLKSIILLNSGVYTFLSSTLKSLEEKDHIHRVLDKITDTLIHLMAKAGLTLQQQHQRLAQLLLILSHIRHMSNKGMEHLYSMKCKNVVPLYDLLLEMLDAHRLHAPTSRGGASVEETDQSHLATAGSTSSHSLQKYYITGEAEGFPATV
To be noted: cited from earlier work.

The conditions of data set [2]: cited from earlier work.

Regarding PSEDRGELWRLLSVTERQN [Peptide L3-09], the “inhibition of transcriptional activity of EPPα” value in data set [1] is given as “reducing the transcriptional activity of EPPα to basal levels”.

With VSWFFE [EMP-1], the IC50 in the data set on mAb-E2 is 0.006 µM; on ERα, 100 µM. Moreover, the “estrogenic activity in vivo” value in data set [2] is “possess estrogenic activity in vivo”.

Regarding VSWFFED [EMP-2], the IC50 was 0.03 µM in the data set on mAb-E2 and 100 µM at ERα. Further, the “estrogenic activity in vivo” value in data set [2] is recorded as “possess estrogenic activity in vivo”.
